Laboratory results published in patent publication US20040219214A1, “Tissue reactive compounds and compositions and uses thereof” (Angiotech International AG, priority 2002, published 2004).

What was measured:
[1] = test system: TNFα production by THP-1 cells; assay: TNF-alpha production by macrophages (ELISA); format: cell-based, human; details: opsonized zymosan stimulation, 24 hours; average of n=4 experiments
Procedure: The human macrophage cell line, THP-1 is plated in a 12 well plate such that each well contains 1×10^6 cells in 2 mL of media containing 10% FCS. Opsonized zymosan is prepared by resuspending 20 mg of zymosan A in 2 mL of ddH2O and homogenizing until a uniform suspension is obtained. Homogenized zymosan is pelleted at 250 g and resuspended in 4 mL of human serum for a final concentration of 5 mg/mL. and incubated in a 37° C. water bath for 20 minutes to enable opsonization. Bay 11-7082 is prepared in DMSO at a concentration of 10^−2 M and serially diluted 10-fold to give a range of stock concentrations (10^−8 M to 10^−2 M) (J. Immunol. (2000) 165: 411-418; J. Immunol. (2000) 164: 4804-4811; J. Immunol Meth. (2000) 235 (1-2): 33-40).
THP-1 cells are stimulated to produce TNFα by the addition of 1 mg/mL opsonized zymosan. […]
After a 24 hour stimulation, supernatants are collected to quantify TNFα production. TNFα concentrations in the supernatants are determined by ELISA using recombinant human TNFα to obtain a standard curve. […] The dilution of Capture Antibody used is lot-specific and is determined empirically. […] Stop Solution (2 N H2SO4) is then added to the wells and a yellow colour reaction is read at 450 nm with A correction at 570 nm. Mean absorbance is determined from triplicate data readings and the mean background is subtracted. […]

[2] = test system: human fibroblasts; assay: Screening assay for effect on cell proliferation (CYQUANT); format: cell-based; details: Fibroblast, 72 hours incubation, average of n=4 experiments
Procedure: Fibroblasts at 70-90% confluency are trypsinized, replated at 600 cells/well in media in 96-well plates and allowed to attachment overnight. Mitoxantrone is prepared in DMSO at a concentration of […] and diluted 10-fold to give a range of stock concentrations (10^−8 M to 10^−2 M). Drug dilutions are diluted 1/1000 in media and added to cells to give a total volume of 200 μL/well. Each drug concentration is tested in triplicate wells. Plates containing fibroblasts and mitoxantrone are incubated at 37° C. for 72 hours (In vitro toxicol. (1990) 3: 219; Biotech. Histochem. (1993) 68: 29; Anal. Biochem. (1993)213: 426).
To terminate the assay, the media is removed by gentle aspiration. A 1/400 dilution of CYQUANT 400× GR dye indicator (Molecular Probes; Eugene, Oreg.) is added to 1× Cell Lysis buffer, and 200 μL of the mixture is added to the wells of the plate. Plates are incubated at room temperature, protected from light for 3-5 minutes. Fluorescence is read in a fluorescence microplate reader at ˜480 nm excitation wavelength and ˜520 nm emission maxima. Inhibitory concentration of 50% (IC50) is determined by taking the average of triplicate wells and comparing average relative fluorescence units to the DMSO control. An average of n=4 replicate experiments is used to determine IC50 values. (IC50=20 nM for proliferation of human fibroblasts).

[3] = test system: nitric oxide production in RAW 264.7 cells; assay: Nitric oxide production by macrophages (Greiss assay); format: cell-based, murine; details: Mus musculus, RAW264.7; IFNγ and LPS stimulation, 24 hours; average of n=4 experiments
Procedure: The murine macrophage cell line RAW 264.7 is trypsinized to remove cells from flasks and plated in individual wells of a 6-well plate. Approximately 2×10^6 cells are plated in 2 mL of media containing 5% heat-inactivated fetal bovine serum (FBS). RAW 264.7 cells are incubated at 37° C. for 1.5 hours to allow adherence to plastic. Mitoxantrone is prepared in DMSO at a concentration of 10^−2 M and serially diluted 10-fold to give a range of stock concentrations (10^−8 M to 10^−2 M). Media is then removed and cells are incubated in 1 ng/mL of recombinant murine IFNγ and 5 ng/mL of LPS with or without mitoxantrone in fresh media containing 5% FBS. Mitoxantrone is added to cells by directly adding mitoxantrone DMSO stock solutions, prepared earlier, at a 1/1000 dilution, to each well. Plates containing IFNγ, LPS plus or minus mitoxantrone are incubated at 37° C. for 24 hours (Chem. Ber. (1879) 12: 426; J. AOAC (1977) 60-594; Ann. Rev. Biochem. (1994) 63: 175).
At the end of the 24 hour period, supernatants are collected from the cells and assayed for the production of nitrites. […] Optical density is read immediately on microplate spectrophotometer at 562 nm absorbance. Absorbance over triplicate wells is averaged after subtracting background and concentration values are obtained from the nitrite standard curve (1 μM to 2 mM). […]

SMILES | IC50 [1] [nM] | IC50 [2] [nM] | IC50 [3] [nM]
Cc1ccc(S(=O)(=O)/C=C/C#N)cc1 [Bay 11-7082] | 810 |  | 
O=C1c2c(O)ccc(O)c2C(=O)c2c(NCCNCCO)ccc(NCCNCCO)c21 [Mitoxantrone, 9,10-Anthracenedione, 1,4-dihydroxy-5,8-bis((2-((2-hydroxyethyl)amino]ethyl]amino]-] |  | 20 | 927
